For experiment [1], the system named is mice. The experiment can be described thus: Rotorod test. In kind it is in vivo, mouse. Conditions: CCPA versus vehicle. The source says:
The rotorod used a rotating cylinder that was 4 cm in diameter, fixed 35 cm above the ground and enclosed by transparent Plexiglas. The rotorod cylinder was covered in textured rubber coating, which facilitates traction. A small electric motor provided power to turn the rotorod via a rubber belt. The rotorod was set to rotate once every 5 s.

For experiment [2], the system named is mice. The experiment can be described thus: EEG/EMG recording, vigilance state scoring and power spectra. In kind it is in vivo, mouse. The source says:
Mice were implanted with EEG and EMG electrodes under ketamine/xylazine anesthesia. After 5-7 days of post-operative recovery, lightweight recording cables were connected to the head implants and mice were placed in cylindrical polypropylene containers containing nest material, water and food ad libitum. Mice were acclimated to the sleep chamber for 5-7 days (12:12 light-dark (LD) cycle; lights on at 8 AM). EEGs and EMGs were then collected on a Pinnacle Technologies system and digitized at 1000 Hz. Following acclimation, baseline 24 h recordings were made.
NonREM sleep (“NREM” sleep), REM sleep and wake were determined by an experimenter blind to experimental condition. On the baseline day, the amount of each state (expressed as a percentage of total recording time) and the duration of individual sleep and wake episodes were computed. Transitions between NREM sleep and REM sleep were also measured during the light phase. To investigate sleep the beneficial effects of sleep deprivation mice, mice were sleep deprived (SD) from 8 a.m. to 8 p.m. at the beginning of the major sleep period (light phase) using a Pinnacle sleep deprivation chamber. All EEG data were analyzed by normalizing each data point to the average power of the EEG from 0.5 to 40 Hz (FIG. 4), and by normalizing each data point (+12 hr, +36 hr, +84 hr, +108 hr) to the corresponding vehicle data points (FIG. 8).
To investigate whether A1R activation alone is capable of altering the sleep architecture and mimicking the effects of sleep deprivation, the adenosine receptor agonist 2-chloro-N(6)-cyclopentyladenosine (CCPA; […]) was administered via i.c.v. cannulae. Following recovery and one week of habituation to the headstage, EEG activity was recorded from mice with i.c.v. saline vehicle infusion for two days to establish baseline EEG activity patterns. The EEG changes following injection of the A1R agonist CCPA were monitored. […] The normalized power from 0.5 to 4.0 Hz was also analyzed, comparing saline baseline to CCPA infusion (FIG. 4D).
Adenosine agonists cause a sustained enhancement of delta power during wakefulness. As a final step in testing the antidepressive actions of adenosine activation of A1Rs was determined to be sufficient to mimic the effects of sleep deprivation on depressive-like behaviors. […] The adenosine receptor agonist 2-chloro-N(6)-cyclopentyladenosine (CCPA; 500 nM) was delivered i.c.v. while performing EEG/EMG recordings.

Experiment [3] relates to mice. The experiment can be described thus: Open field test (locomotor activity). The experiment is classed as in vivo, mouse. The settings on record: wildtype mice treated i.c.v. The procedure:
The open field test was performed in accordance with the […] resource phenotyping protocol (Brown, S. et al., Nat. Genet., 37:1155, 2005). Open field behavior of mice was videorecorded from above, and assessed using Ethovision. Results from tracking analysis were analyzed using ANOVA to compare means.

Experiment [4] deals with mice. The experiment can be described thus: Sucrose consumption test (anhedonia). The experiment is classed as in vivo, mouse. Conditions: i.c.v. CCPA, three bolus injections at ZT=0, 3 and 6; vehicle baseline 30.55±3.60 g/kg; p=0.008. The procedure: Sucrose consumption experiments can be conducted known to one of skill in the art. For a typical test, mice are gradually acclimatized to increasing durations of water deprivation (0, 4, 8, 12, and 16 hours) and i.c.v. infusion of saline over the course of five days to minimize the stressfulness of the testing. On the sixth day, instead of receiving water at the end of the deprivation period, mice are given a 1% v/w solution of sucrose. This is repeated for three days (days 6-9) to establish baseline sucrose consumption levels. During the deprivation period preceding day 10, mice are given i.c.v. infusions of the identified test compound, followed by the presentation of sucrose as during baseline consumption testing. The average baseline (saline infusion) sucrose consumption is then compared to the average sucrose consumption following test compound infusion. Results are analyzed using a Student's t-test to compare means.
Sucrose consumption was conducted (Papp, M. et al., Psychopharmacology (Berl.), 104:255-9, 1991). After the acclimatization and habituation period mice were given access to sucrose for three days (days 6-9) to establish baseline sucrose consumption levels. Mice were then given i.c.v. infusions of CCPA administered as a series of three bolus injections at ZT=0, 3 and 6, followed by the presentation of sucrose (day 10). […]

Experiment [5] relates to C57Bl/6J mice. The experiment can be described thus: Forced swim test (FST). In kind it is in vivo, mouse. The settings on record: for duration of reduced immobility in forced swim test after onset of administration: cohorts tested 12, 36, 84 and 108 hours after first treatment. As for the experimental part: The forced swim test is typically performed in a quiet experimental room as described in previous reports (Porsolt, R. et al., Arch. Int. Pharmacodyn. Ther., 229:327-336, 1977). For a typical test, animals are placed, for example, into a plexiglass cylinder (25 cm height, 25 cm diameter) containing 20 cm height of water at 23-25 C for 10 min. The animals typically display very fast swimming initially, lasting 1-2 min, followed by increasing immobility. Immobile time is measured during the last 4 min of the total period for statistical analysis. The animals are videotaped and movements are digitized from above. Immobility can be automatically scored, for example, using Ethovision (Noldus Information Technology Inc., Leesburg, U.S.A.).
The forced swim test (FST) was performed in a quiet experimental room. Animals where placed into a Plexiglass cylinder (25 cm height, 25 cm diameter) containing 20 cm height of water at 23-25° C. for 10 min. […] Immobile time was measured during the last 4 min of the total period for statistical analysis. The animals were videotaped and movements were digitized from above. Immobility was automatically scored using Ethovision (Noldus Information Technology Inc., Leesburg, U.S.A.). Results from tracking analysis were analyzed using ANOVA to compare means.

The target of the next experiment is T1, A1R (Mus musculus, UniProt Q60612).
T1 construct: from tissue; host or cells: acute mouse hippocampal slices (C57Bl/6J background; wild type and dnSNARE mice)
T1 sequence (Q60612 1-326): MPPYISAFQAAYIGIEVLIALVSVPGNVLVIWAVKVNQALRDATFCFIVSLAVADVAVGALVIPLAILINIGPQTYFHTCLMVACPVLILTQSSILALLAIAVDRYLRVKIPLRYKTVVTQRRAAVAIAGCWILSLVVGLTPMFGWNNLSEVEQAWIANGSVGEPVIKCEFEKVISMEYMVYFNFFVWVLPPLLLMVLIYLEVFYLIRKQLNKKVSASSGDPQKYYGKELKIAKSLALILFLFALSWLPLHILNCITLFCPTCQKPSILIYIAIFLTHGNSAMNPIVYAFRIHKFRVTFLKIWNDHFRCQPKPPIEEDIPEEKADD
The experiment can be described thus: fEPSP enhancement at Schaeffer collateral synapse of hippocampal area CA1 in acute slices (adenosine tone). The experiment is classed as cell-based. Conditions: CPT 200 nM. As for the experimental part:
Mice were briefly anaesthetized with isofluorane and then decapitated, and slices were prepared (Manzoni, O. et al., Science, 265:2098-101, 1994). The brain was rapidly extracted in cold cutting solution (124 mM NaCl, 26 mM NaHCO3, 1 mM NaHPO4, 10 mM Glucose, 1 mM sodium pyruvate, 0.6 mM ascorbate, 2.9 mM KCl, 1 mM CaCl2, 2 mM MgCl2) bubbled continuously with a 95% O2 5% CO2 gas mixture. Slices 310 μm thick were cut using a Leica VT 1000S Vibratome. Isolated hippocampal slices were transferred to a bath containing continuously oxygenated cutting solution and incubated at 30 C for a 1.5 hour recovery period. Extracellular recordings were conducted in artificial cerebrospinal fluid (aCSF, 124 mM NaCl, 26 mM NaHCO3, 1 mM NaHPO4, 10 mM Glucose, 1 mM sodium pyruvate, 2.9 mM KCl, 2 mM CaCl2, 1 mM MgCl2) continuously superfused at 1.2 mL/minute and maintained at 32.8 C. Extracellular stimulation were delivered using a 125 μm concentric Pt—Ir electrode in unipolar mode with a pulse width of 0.1 ms.
A relative measure of the extracellular adenosine level can be obtained by determining the proportional enhancement of synaptic transmission in response to the application of the A1R antagonist 8-cyclopentyltheophylline (CPT; 200 nM) an approach that has been validated using electrochemical biosensors (Schmitt, L. et al., J. Neurosci., 32:4417-25, 2012).
The physiological mechanisms underlying the effects of sleep deprivation was investigated by asking whether sleep deprivation leads to an elevation of extracellular adenosine. A relative measure of the extracellular adenosine level can be obtained by determining the proportional enhancement of synaptic transmission in response to the application of the A1R antagonist 8-cyclopentyltheophylline (CPT; 200 nM). Independent measurements of extracellular adenosine using electrochemical biosensors have validated this approach. Field excitatory postsynaptic potentials (fEPSP) were measured at the Schaeffer collateral synapse of hippocampal area CA1 before and following application of CPT.

Experiment [6] concerns C57Bl/6J mice. The experiment can be described thus: Tail suspension test (TST). Conditions: CPT 4 mM i.c.v. In kind it is in vivo, mouse. The procedure: Results from tracking analysis were analyzed using ANOVA to compare means.
[7] abbreviates: CCPA 500 nm i.c.v., percentage of recording time.

“Also recorded” adds a separate entry of the source.

Take `OCC1OC(n2cnc3c(NC4CCCC4)nc(Cl)nc32)C(O)C1O` (centres unmarked) [CCPA, 2-(2-chloro-6-(cyclopentylamino)-9H-purin-9-yl)-5-(hydroxymethyl)tetrahydrofuran-3,4-diol]: in the experiment with mice [1], the “latency to fall / locomotor activity in rotorod test” value was “without accompanying changes in locomotor activity; also recorded: do not differ”. The “percent wake at 12 h after administration” value in the experiment with mice [2] (12 h (ZT 12) after CCPA) was “significantly greater percentage of time awake; also recorded: increased percent wake”. Also, the “increased percent wake at 36 h after administration” value in the experiment on mice [2] (36 h following CCPA) is recorded as “no longer present”. Also, in the experiment with mice [2] (CCPA 500 nm i.c.v.), the “EEG power spectra compared to baseline saline” value is on record as “dramatic increase in the power spectra”. In the experiment on mice [2] (setting [7]), the “duration of REM sleep” value was found to be 18.13±1.30%, the “duration of non-REM sleep” value is 48.75±1.85% and the duration of wake came out at 31.38±1.93%. Moreover, in the experiment with mice [2] (CCPA i.c.v. ZT=0, 3 and 6, p<0.001), the “delta power (0.5-4 Hz) during wakefulness after mice awoke” value was “prominent increase in delta power”. Besides, in the experiment with mice [2] (CCPA i.c.v. infusion, 500 nM), the “percentage of time awake during administration” value was “transient decrease; also recorded: decreased”. For the same compound, in the experiment on mice [2] (acute, during CCPA action), the “acute effect on delta power” value was “reduce delta power”. Also, the “time after last administration by which effects on sleep had reversed” value in the experiment with mice [2] (reversed by ZT=11, last administration at ZT=6) is ≤ 5 h. The “time asleep ZT 1 through 10 compared to vehicle” value with mice [2] (three consecutive CCPA infusions (ZT=0, 3, 6), 500 nM i.c.v., p<0.002) was “significantly greater time”. In addition, the “locomotor activity / total distance traveled in open field” value in the experiment with mice [3] was “without accompanying changes in locomotor activity; also recorded: do not differ”. In addition, in the experiment on mice [4], the sucrose consumption came to 51.45 ± 6.35 g/kg. Besides, the “beneficial effects in forced swim test 3 and 5 days after infusion” value in the experiment with C57Bl/6J mice [5] (3 and 5 days after infusion) is reported as “no longer observed”. The “effect on immobile time, forced swim test” value in the experiment on C57Bl/6J mice [5] (CCPA i.c.v. (ZT=0, 3 and 6), tested at ZT=12) was “decreased immobile time; also recorded: reduction in immobile time; also recorded: significantly reduces immobility”. For the same compound, the “duration of reduced immobility in forced swim test after onset of administration” value in the experiment on C57Bl/6J mice [5] was found to be 36 h. In addition, the “duration of reduced immobility in forced swim test after onset of administration” value with C57Bl/6J mice [5] (listed as COPA) is “up to 36 hours”. In the experiment with C57Bl/6J mice [5] (three i.c.v. injections spaced evenly across a 12 hour period, cohorts at 24 hours, +1, +3, +5 days), the “duration of beneficial effects in forced swim test” value stood at 24 h.
With `Cn1c(=O)c2[nH]c(C3CCCC3)nc2n(C)c1=O` [CPT, 8-cyclopentyltheophylline], the “increase in fEPSP (adenosine tone)” value on A1R (WT undisturbed mice, ZT=0) amounted to 481.70±85.04%. In addition, the “proportional enhancement of fEPSP (adenosine tone)” value at A1R (WT, ZT=12 (end of light phase)) is reported as 128.15±28.91%. Besides, the “adenosine tone (fEPSP enhancement)” value is 104.62±18.31% on A1R (after 72 h of sleep deprivation, ZT=0); 61.98±16.80% at A1R (dnSNARE, ZT=0); 27.91±5.10% at A1R (dnSNARE, ZT=12); 367.61±24.95% at A1R (transient total sleep deprivation ZT 0 to ZT 12). Besides, the “basal immobility, tail suspension test” value in the experiment with C57Bl/6J mice [6] (no sleep deprivation) came out at 187.60 ± 11.46 s. Also, in the experiment with C57Bl/6J mice [6] (sleep deprivation), the “immobility after sleep deprivation, tail suspension test” value was determined as 204.00 ± 3.58 s. For the same compound, the “locomotor activity / total distance traveled in open field” value with mice [3] is “do not differ”. Besides, in the experiment with C57Bl/6J mice [5] (CPT 4 mM i.c.v., no sleep deprivation), the “basal immobility, forced swim test” value was determined as 176.43 ± 21.77 s. Also, the “immobility after sleep deprivation, forced swim test” value in the experiment with C57Bl/6J mice [5] (CPT 4 mM i.c.v., sleep deprivation) stood at 167.70 ± 18.89 s.
As to `CN(C)CCCN1c2ccccc2CCc2ccccc21` [imipramine], the “immobility in behavioral despair tasks” value in the experiment with C57Bl/6J mice [5] (14 days of treatment) is on record as “reduces immobility”. In addition, the “time spent immobile, forced swim test” value in the experiment with C57Bl/6J mice [5] (wildtype littermates, imipramine 20 mg/kg, chronic 14 days) worked out at 73.00 ± 9.53 s.

Values taken from patent publication US20140241990A1, “METHODS OF USING ADENOSINE A1 RECEPTOR ACTIVATION FOR TREATING DEPRESSION” (TUFTS UNIVERSITY, priority 2011, published 2014).
